One assay addresses T1, D4.4 receptor (Homo sapiens, UniProt P21917).
T1 construct: expressed in transfected cells; host or cells: CHO cells
T1 sequence (P21917 1-419): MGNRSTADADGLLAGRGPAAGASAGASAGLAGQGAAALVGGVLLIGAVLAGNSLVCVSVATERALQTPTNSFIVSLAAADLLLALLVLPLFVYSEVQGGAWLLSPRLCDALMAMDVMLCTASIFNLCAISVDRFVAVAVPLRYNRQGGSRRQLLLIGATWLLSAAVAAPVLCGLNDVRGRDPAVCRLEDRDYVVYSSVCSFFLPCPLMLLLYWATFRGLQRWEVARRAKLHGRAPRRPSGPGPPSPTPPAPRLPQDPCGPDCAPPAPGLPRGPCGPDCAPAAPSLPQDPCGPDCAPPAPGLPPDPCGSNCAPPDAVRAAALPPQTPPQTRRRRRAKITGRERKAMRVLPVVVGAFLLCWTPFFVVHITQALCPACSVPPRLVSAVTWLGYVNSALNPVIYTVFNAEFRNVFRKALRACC
Kind of assay: Competitive binding to D4.4 dopamine receptor ([3H]-YM-09151-2 radioligand). Conditions: 5 mcM compound; human recombinant D4.4 in CHO cells; na = no activity. As to the method:
(§1) Compounds were assayed for competitive binding to D2 SHORT and D4.4 type dopamine receptors. Both receptor types are expressed as human recombinant proteins in CHO cells, as described, for example, in Jarvis et al. (1973); Van Tol et al. (1991) and Van Tol et al. (1992).
(§2) Determination of binding to D4.4 receptor was performed using [^3H]-YM-09151-2 (70-87 Ci/mmol, 0.3 nM), as a radioligand, in with the presence of various concentrations of the tested compound. Reactions were carried out in 50 mM TRIS-HCl (pH 7.4) containing 5 mM MgCl2, 5 mM EDTA, 5 mM KCl and 1.5 mM CaCl2, for 60 minutes at 22° C. The reaction was terminated by rapid vacuum filtration onto glass fiber filters. Radioactivity trapped onto the filters was determined (counted) and compared to control values in order to accurately evaluate any interaction of the tested compound(s) with the cloned dopamine D4.4 binding site.

Assay [1] deals with D2 SHORT and D4.4 type dopamine receptors. Kind of assay: D4/D2 binding ratio from competitive binding to D4.4 and D2 short receptors. Set-up: species or system human. Conditions: ratio of concentrations required to inhibit 50% of radioligand binding for each receptor. The procedure: as §1
Determination of binding to D2 short receptor was performed using [^3H]-spiperone, a D2 receptor ligand (Gundlach et al., 1984), as a radioligand (20-60 Ci/mmol, 0.2 nM) in the presence of various concentrations of the tested compound. Reactions were carried out in 50 mM TRIS-HCl (pH 7.4) containing 120 mM NaCl, 5 mM KCl, 5 mM MgCl2 and 1 mM EDTA, for 60 minutes at 25° C. The reaction was terminated by rapid vacuum filtration onto glass fiber filters. Radioactivity trapped onto the filters was determined (counted) and compared to control values in order to accurately evaluate any interaction of the test compound(s) with the cloned dopamine D2 short binding site.
as §2
D4/D2 binding ratios were determined based on the ratio of the concentration of each tested compound required to inhibit 50% of the radioligand binding for each receptor.

Assay [2] has as its target T2, Human recombinant dopamine D4.4 receptors expressed in CHO-K1 cells (Homo sapiens, UniProt P21917).
T2 construct: expressed in transfected cells; host or cells: CHO-K1 cells (membranes)
T2 sequence (P21917 1-419): T1 sequence (P21917 1-419)
Kind of assay: GTPgammaS Cellular Assay (agonist response). The format is biochemical. Conditions: relative to the 1 μM dopamine response; tested at 5, 1, 0.1, 0.01 μM (concentration of tabulated value not given); na = no activity; read-out: D4.4(h) GTPgammaS^35 Cellular Assay, Agonist Response, %. As to the method:
Human recombinant dopamine D4.4 receptors expressed in CHO-K1 cells were used. The tested compound was pre-incubated with 0.1 mg/ml membranes and 10 μM GDP for 20 minutes at 25° C. in modified HEPES buffer (pH 7.4). SPA beads were then added and the mixture was maintained for additional 60 minutes at 30° C. The reaction was initiated by the addition of 0.3 nM [^35S]GTPγS, and the obtained reaction mixture were incubated for 30 minutes. Test compound-induced increase of [^35S]GTPγS binding by 50 percent or more (≧50%) relative to the 1 μM dopamine response indicated dopamine D4.4 agonist activity. Test compound-induced inhibition of 1 μM dopamine-induced increase of [^35S]GTPγS binding response by 50 percent or more (≧50%) indicated receptor antagonist activity. Compounds were tested at concentrations of 5, 1, 0.1, 0.01 μM.

For assay [3], the target named is T3, PDE5 partially purified from human platelets (Homo sapiens, UniProt O76074).
T3 construct: PDE5 partially purified from human platelets was used; from tissue; host or cells: human platelets
Kind of assay: Phosphodiesterase Type 5 (PDE5) Inhibition. The format is biochemical. Conditions: for IC50 / PDE5 IC50, 10^−6 M: 'active' = observed activity not quantitated; for IC50: read-out: PDE5 IC50, 10^−6 M; for exhibit both PDE5 inhibition and D4 agonist activity (dual activity): referring to Table 2 (PDE5 and D4 assays); for inhibition at 50 µM: 50 mcM compound, 1 μM cGMP. The procedure: Phosphodiesterase type 5 (PDE5) catalyzes the conversion of cAMP or cGMP to their respective monophosphate forms. PDE5 has a high Km for cAMP and a low Km for cGMP, is insensitive to Ca^2+/calmodulin or cGMP regulation, and is relatively sensitive to inhibitors such as dipyridamol and zaprinast.
PDE5 partially purified from human platelets was used. The tested compound (at a concentration of 0.1, 1, 20 or 50 μM) and/or vehicle was incubated with 3.5 μg enzyme and 1 μM cGMP containing 0.01 μM [^3H]cGMP in Tris buffer pH 7.5 for 20 minutes at 30° C. Since enzyme activity may change from lot to lot, the concentration used was adjusted if required.
The reaction was terminated by boiling the reaction mixture for 2 minutes. The obtained GMP was then converted to guanosine by addition of 10 mg/ml snake venom nucleotidase and further incubation at 30° C. for 10 minutes. Unhydrolyzed cGMP was bound to AG1-X2 resin, and remaining [^3H]Guanosine in the aqueous phase was quantitated by scintillation counting.

SMILES strings stand for the structures.

The record followed here is patent publication US8349850B2, “Heterocyclic compounds and uses thereof in the treatment of sexual disorders” (ATIR Holding S.A., priority 2006, dated 2013).

As a reminder, the inhibition is the change of the read-out against control, counted positive when it falls. With `O=c1cc(CN2CC=C(c3ccccc3)CC2)nc2ccccn12` [Compound 301, 2-[(4-phenyl-3,6-dihydropyridin-1(2H)-yl)methyl]-4H-pyrido[1,2-a]pyrimidin-4-one], at D4.4 receptor, the inhibition at 5 µM came to 59%. For the same compound, in assay [1], the “D4/D2 Selectivity” value was approximately 10. In assay [2], the Emax worked out at 69%.

Turning to `O=c1[nH]c(CN2CCN(c3ccccc3Cl)CC2)nc2ccccc12` [Compound 109, 2-{[4-(2-chlorophenyl)piperazin-1-yl]methyl}quinazolin-4(3H)-one], the inhibition at 5 µM at D4.4 receptor was 57%. In addition, the “D4/D2 Selectivity” value in assay [1] is recorded as more than 100. Further, the Emax in assay [2] was determined as 54%.

Consider `N#Cc1ccccc1N1CCN(Cc2nc3ccccc3c(=O)[nH]2)CC1` [Compound 110, 2-{4-[(4-oxo-3,4-dihydroquinazolin-2-yl)methyl]piperazin-1-yl}benzonitrile], for which the inhibition at 5 µM at D4.4 receptor turned out to be 52%. Further, the “D4/D2 Selectivity” value in assay [1] is given as more than 500. In addition, in assay [2], the Emax was found to be 69%.

Take `COc1ccccc1N1CCN(Cc2nc3ccccc3c(=O)[nH]2)CC1` [Compound 107, 2-{[4-(2-methoxyphenyl)piperazin-1-yl]methyl}quinazolin-4(3H)-one]: the inhibition at 5 µM at D4.4 receptor stood at 88%. For the same compound, the “D4/D2 Selectivity” value in assay [1] was more than 70. Further, the Emax in assay [2] stood at 44%.

What is called IC50 is the concentration needed to halve the response being measured. With `O=c1[nH]c(CN2CCN(c3cccc(O)c3)CC2)nc2ccccc12` [Compound 113, 2-{[4-(3-hydroxyphenyl)piperazin-1-yl]methyl}quinazolin-4(3H)-one], the inhibition at 5 µM at D4.4 receptor came to 91%. Besides, the “D4/D2 Selectivity” value in assay [1] is recorded as approximately 50. In assay [3], the IC50 stood at 20 µM; the “exhibit both PDE5 inhibition and D4 agonist activity (dual activity)” value was “both PDE5 inhibition and D4 agonist activity”. In addition, the Emax in assay [2] was 42%.

Turning to `O=c1cc(CN2CC=C(c3ccccc3)CC2)oc2ccccc12` [Compound 201, 2-[(4-phenyl-3,6-dihydropyridin-1(2H)-yl)methyl]-4H-chromen-4-one], the inhibition at 5 µM on D4.4 receptor worked out at 72%. Moreover, the “D4/D2 Selectivity” value in assay [1] is given as approximately 10. Besides, in assay [2], the Emax was 75%.

On to `O=c1[nH]c(CN2CCN(c3ncccn3)CC2)nc2ccccc12` [Compound 123, 2-[(4-pyrimidin-2-ylpiperazin-1-yl)methyl]quinazolin-4(3H)-one], for which, on D4.4 receptor, the inhibition at 5 µM stood at 13%. In assay [3], 50 µM produced 61% inhibition and the half-maximal inhibitory concentration (IC50) turned out to be 26 µM.

As to `O=c1[nH]c(CN2CCN(c3ccccc3F)CC2)nc2ccccc12` [Compound 104, 2-{[4-(2-fluorophenyl)piperazin-1-yl]methyl}quinazolin-4(3H)-one], the inhibition at 5 µM on D4.4 receptor stood at 59%. The “D4/D2 Selectivity” value in assay [1] was more than 100. The Emax in assay [2] stood at 62%.

Turning to `CCCOc1cccnc1N1CCN(Cc2nc3ccccc3c(=O)[nH]2)CC1` [Compound B-14, 2-((4-(3-propoxypyridin-2-yl)piperazin-1-yl)methyl)quinazolin-4(3H)-one], at D4.4 receptor, the inhibition at 5 µM amounted to 81%. Also, in assay [3], the inhibition at 50 µM came to 70%; the IC50 is 9 µM; the “exhibit both PDE5 inhibition and D4 agonist activity (dual activity)” value is “both PDE5 inhibition and D4 agonist activity”.

On to `Cc1cccc2nc(CN3CCN(c4cccc(O)c4)CC3)[nH]c(=O)c12` [Compound B-9, 2-((4-(3-hydroxyphenyl)piperazin-1-yl)methyl)-5-methylquinazolin-4(3H)-one], for which, at D4.4 receptor, the inhibition at 5 µM was 89%. Besides, in assay [3], at 50 µM the inhibition was 47% and the “PDE5 IC50, 10^−6 M” value is reported as “active”.

As for `CCOc1ccccc1N1CCN(Cc2nc3ccccc3c(=O)[nH]2)CC1` [Compound 108, 2-{[4-(2-ethoxyphenyl)piperazin-1-yl]methyl}quinazolin-4(3H)-one], on D4.4 receptor, the inhibition at 5 µM worked out at 93%. Also, in assay [1], the “D4/D2 Selectivity” value was more than 100. Moreover, the Emax in assay [2] is 49%.

For `O=c1[nH]c(CN2CC=C(c3ccccc3)CC2)nc2ccccc12` [Compound 124, 2-[(4-phenyl-3,6-dihydropyridin-1(2H)-yl)methyl]quinazolin-4(3H)-one], the inhibition at 5 µM on D4.4 receptor was determined as 73%. Also, the “D4/D2 Selectivity” value in assay [1] is approximately 85. The Emax in assay [2] amounted to 57%.

On to `O=c1[nH]c(CN2CCN(c3ccccn3)CC2)nc2nc[nH]c12` [Compound 409, 2-((4-(pyridin-2-yl)piperazin-1-yl)methyl)-1H-purin-6(7H)-one], for which the inhibition at 5 µM at D4.4 receptor stood at 8%. Further, in assay [3], the inhibition at 50 µM turned out to be 24% and the “PDE5 IC50, 10^−6 M” value is “active”.
